Measurements as given in PMC7738871, “Covalent modification of Keap1 at Cys77 and Cys434 by pubescenoside a suppresses oxidative stress-induced NLRP3 inflammasome activation in myocardial ischemia-reperfusion injury” (Theranostics, 2021).

Tests used:
[1] = target: T1, Keap1 C38S (Homo sapiens, UniProt Q14145, C38S); assay: ITC titration of PBA with Keap1-C38S; assay type: binding; settings: 25 ℃
T1 construct: His (N); made in house; host or cells: E. coli BL21 (DE3)
Description: The Keap1 was amplified by PCR using a human cDNA library, and was subcloned into the vector pET28-TEV, which contained one tobacco etch virus (TEV) protease cleavage site at the upstream multiple cloning site. The protein was expressed in E. coli BL21 (DE3) cells and incubated at 37 °C until the OD600 value reached 0.6, using 0.2 mM isopropyl β-D-1-thiogalactopyranoside (IPTG) overnight induction at 18 °C. The cells were isolated by centrifugation, resuspended in ice-cold lysis buffer and lysed by cryogenic overpressure cell breaker at 1,200 psi. The lysates were centrifuged for 60 min at 14,000 rpm to obtain the supernatant. Gravity flow purification of Keap1 protein was obtained at room temperature using 1 mL of Ni-NTA and eluted in buffer containing 250 mM imidazole, followed by 1 mL of HiTrap QHP for the second step purification. The final protein was purified and validated by Superdex 200 10/300GL resin.
The mutant plasmid DNA was obtained by PCR. The PCR products were cleaved by DpnI restriction enzymes. The restriction endonuclease-cleaved mixture was subsequently transformed into E. coli DH5α. Colonies were evaluated by colony PCR and sequenced. The mutant plasmid was transformed into E. coli BL21 (DE3) after successful sequencing. The steps for expression and purification of all recombinants were described above.
Isothermal calorimetry (ITC) titration experiments were performed at 25 °C. WT Keap1, Keap1 mutants and PBA were dissolved in binding buffer (40 mM Tris-HCl pH 8.0, 250 mM NaCl). In a typical experiment, 60 μL of PBA (1 mM) was injected 19 times at 2-min intervals from a stirring syringe into the sample cell containing 300 μL of WT protein or mutants (30 μM). The first injection was 0.4 μL of PBA, and the subsequent 18 injections were 2 μL each time. The site-binding models were determined by using MicroCal Origin software.

[2] = system: NLRP3 inflammasome; assay: LPS plus ATP-induced NLRP3 inflammasome in RAW264.7; assay type: cell-based
Description: Based on the previous study, RAW264.7 cells were treated with different concentrations of PBA 1 h before 200 ng/mL lipopolysaccharide (LPS) stimulation for 6 h. Then, 2 mM adenosine triphosphate (ATP) was added and incubated for 20 min at 37 °C with 5% CO2.
(§1) Total protein was isolated from H9c2 cells, primary mouse cardiomyocytes, RAW264.7 cells and heart tissue using 1X RIPA buffer containing phosphatase and proteinase inhibitors at 4 °C. After measurement of the concentration, the cell lysates were separated by sodium dodecyl sulphate polyacrylamide gel electrophoresis (SDS-PAGE) and transferred to polyvinylidene fluoride (PVDF) membranes. The membranes were blocked in Tris-buffered saline-Tween 20 (TBST) buffer with 5% BSA for 1 h and incubated with primary antibodies (1:1000 dilution) overnight at 4 °C. After the membranes was washed by TBST buffer for three times, they were incubated with horseradish peroxidase (HRP)-conjugated secondary mouse or rabbit antibodies (1:3,000 dilution) at room temperature (RT) for 1.5 h and then detected by SuperEnhanced chemiluminescence (ECL) reaction reagents (GBCBIO Technologies Inc., Guangzhou, Guangdong, China). […] After letting the membranes stand for 1-2 min, the bands of the respective proteins were detected with the exposure time of 10 ~60 s.
According to previous experiences, Nrf2 nucleus translocation could be detected at 6 h. […]

[3] = system: NLRP3 inflammasome; assay: OGD/R-induced NLRP3 inflammasome activation in primary cardiomyocytes; assay type: cell-based, mouse; settings: OGD 3 h, reperfusion 18 h, dose-dependent
Description: The heart was removed from the neonatal C57BL/6 mice and cut into 1 mm^3 pieces in ice […] buffer. The tissues were digested with the mixture of 0.125% trypsin (Gibco, 15090-046) and 0.1% type II collagenase (Gibco, 17101-015) 6 min at 37 °C for three times until the tissues were completely digested. The cells were harvested and seeded in a dish. After 90 min of incubation, the cell culture medium was collected and centrifuged. The centrifuged cardiomyocytes were harvested, seeded on 0.1 % gelatin-coated culture plates with DMEM containing 10% FBS and […] Brdu, and incubated in a 37°C incubator.
as §1, with “After measurement of the concentration, the cell lysates were separated by sodium dodecyl sulphate polyacrylamide gel electrophoresis (SDS-PAGE) and transferred to polyvinylidene fluoride (PVDF) membranes. The membranes were blocked in Tris-buffered saline-Tween 20 (TBST) buffer with 5% BSA for 1 h and incubated with primary antibodies (1:1000 dilution) overnight at 4 °C.” left out

[4] = system: T2, Keap1; assay: Pull-down with PBA-Sepharose 4B beads, cell lysate; assay type: binding; settings: 4 °C, immunoblot, Sepharose 4B beads only as negative control
T2 construct: endogenous in cells; host or cells: RAW264.7
Description: PBA-Sepharose 4B beads were created by dissolving PBA in coupling buffer (100 mM NaHCO3, pH 8.3, 0.5 M NaCl). After washing with 1 mM HCl medium, Sepharose 4B beads were mixed with PBA coupling buffer and slowly rotated overnight at 4 °C. Excess PBA was washed away with coupling buffer and any remaining active groups were blocked with 0.1 M Tris-HCl buffer (pH 8.0) for 2 h. The medium was then washed with 0.1 M acetate buffer (pH 4.0) containing 0.5 M NaCl followed by a wash with 0.1 M Tris-HCl (pH 8.0) that also contained 0.5 M NaCl. PBA-Sepharose 4B beads were ready for use in the pull-down assay. The RAW264.7 cellular supernatant fraction (600 µg) was incubated with either PBA-Sepharose 4B or Sepharose 4B as a negative control in reaction buffer (50 mM Tris-HCl, pH 7.5, 5 mM EDTA, 150 mM NaCl, 1 mM DTT, 0.01% NP-40, 2 µg/mL of BSA, 0.02 mM PMSF, 1 × protease inhibitor cocktail). After incubation with gentle rocking overnight at 4 °C, the beads were washed five times with wash buffer (50 mM Tris-HCl, pH 7.5, 5 mM EDTA, 150 mM NaCl, 1 mM DTT, 0.01% NP-40, 0.02 mM PMSF) and proteins bound to the beads were analyzed by immunoblotting assay with a Keap1 antibody.

T1 sequence (Q14145 whole entry C38S): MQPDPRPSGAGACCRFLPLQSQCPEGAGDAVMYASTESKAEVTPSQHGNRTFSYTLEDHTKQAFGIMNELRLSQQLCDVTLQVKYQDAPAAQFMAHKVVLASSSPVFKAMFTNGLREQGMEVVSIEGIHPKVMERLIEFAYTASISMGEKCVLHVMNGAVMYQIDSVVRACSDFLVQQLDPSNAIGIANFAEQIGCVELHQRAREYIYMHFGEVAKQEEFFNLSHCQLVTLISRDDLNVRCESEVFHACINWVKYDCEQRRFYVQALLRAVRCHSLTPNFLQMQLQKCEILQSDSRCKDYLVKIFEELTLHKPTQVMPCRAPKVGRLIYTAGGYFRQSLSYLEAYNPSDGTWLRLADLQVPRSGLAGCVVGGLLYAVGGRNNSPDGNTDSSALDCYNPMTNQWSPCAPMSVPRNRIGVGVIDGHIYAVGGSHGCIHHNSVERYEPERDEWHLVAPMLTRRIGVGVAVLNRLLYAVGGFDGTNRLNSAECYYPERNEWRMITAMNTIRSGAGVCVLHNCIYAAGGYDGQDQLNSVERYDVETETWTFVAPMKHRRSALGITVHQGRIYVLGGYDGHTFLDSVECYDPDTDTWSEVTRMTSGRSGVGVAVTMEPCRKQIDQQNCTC

- Kd [1]: 8.59 µM
- T△S [1]: 2.32 ± 0.00 kcal/mol
- △H [1]: -4.59 ± 0.199 kcal/mol
SMILES: C=C(COC(=O)C=Cc1ccc(O)c(O)c1)C(O)COC1OC(CO)C(O)C(O)C1O (stereo not shown) [PBA, pubescenoside A]
- LPS/ATP-induced ACS and Caspase1 expression (immunofluorescent staining) ([2]; RAW264.7, 30 μM): significantly reduced
- LPS/ATP-mediated NLPR3 induction, cleaved-caspase1 and IL-1β ([2]; RAW264.7, PBA 1 h pretreatment, 200 ng/mL LPS 6 h, 2 mM ATP 20 min, western blot): attenuated
- OGD/R-induced inflammasome activation (NLRP3, cleaved-caspase1, mature IL-1β) [3]: substantially inhibited
- binding of Keap1 to PBA-Sepharose 4B beads (pull-down) [4]: could bind
